Data from patent US8455475B2 (Gruenenthal GmbH, priority 2009, dated 2013).
Structures can show the parent of a compound that is named as a salt.

Assays:
[1] = target: T1, rat B1R (bradykinin receptor 1) (Rattus norvegicus, UniProt P97583); test: FLIPR Ca2+ assay (Fluo-4) on CHO K1 cells stably transfected with the B1R gene of the rat (rB1R cells): % inhibition at 10 μM / IC50, agonist Des-Arg9-bradykinin; format: cell-based; details: CHO-K1, rat B1R
T1 construct: expressed in transfected cells; host or cells: CHO K1 cells
T1 sequence (P97583 1-337): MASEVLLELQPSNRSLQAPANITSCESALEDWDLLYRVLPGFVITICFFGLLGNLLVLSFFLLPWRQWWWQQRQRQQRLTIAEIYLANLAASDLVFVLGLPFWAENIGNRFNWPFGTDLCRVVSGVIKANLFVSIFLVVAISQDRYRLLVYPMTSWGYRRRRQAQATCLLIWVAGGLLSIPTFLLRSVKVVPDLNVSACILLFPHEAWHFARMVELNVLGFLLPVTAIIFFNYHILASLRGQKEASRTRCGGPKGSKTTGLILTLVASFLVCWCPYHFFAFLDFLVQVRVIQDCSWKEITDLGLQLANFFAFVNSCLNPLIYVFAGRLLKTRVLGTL
Method in brief: (§1)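 Stably transfected CHO K1 cells loaded with Fluo-4 and read on FLIPR (λex 488, λem 540 nm; peak fluorescence). Test substance (10 μM) added first, then after 10–20 min the agonist at EC80; % inhibition versus maximum achievable inhibition. IC50 from several concentrations, n=2–3, N≥2.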

[2] = target: T2, human B1R (bradykinin receptor 1) (Homo sapiens, UniProt P46663); test: FLIPR Ca2+ assay (Fluo-4) on CHO K1 cells stably transfected with the human B1R gene (hB1R cells): % inhibition at 10 μM / IC50, agonist Lys-Des-Arg9-bradykinin; format: cell-based; details: CHO-K1, human B1R
T2 construct: expressed in transfected cells; host or cells: CHO K1 cells
T2 sequence (P46663 1-353): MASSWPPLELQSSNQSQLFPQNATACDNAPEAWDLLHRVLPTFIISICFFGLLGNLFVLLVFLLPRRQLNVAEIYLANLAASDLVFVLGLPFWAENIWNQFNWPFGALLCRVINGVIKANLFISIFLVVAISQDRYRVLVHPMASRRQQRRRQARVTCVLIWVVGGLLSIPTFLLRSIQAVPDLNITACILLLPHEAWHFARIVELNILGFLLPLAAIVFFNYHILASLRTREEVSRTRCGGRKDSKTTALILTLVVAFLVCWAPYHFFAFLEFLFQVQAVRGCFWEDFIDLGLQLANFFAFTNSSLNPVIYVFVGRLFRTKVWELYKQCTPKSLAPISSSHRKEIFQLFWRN
Method in brief: as §1

SMILES | inhibition at 10 µM [1] | inhibition at 10 µM [2]
Cc1cc2c(cc1C(=O)N1CCC3(CCN(c4ccncc4)CC3)C1)[C@H](NC(=O)c1ccccc1Cl)CC2 [Example H-93, 2-Chloro-N-[(1R)-5-methyl-6-(8-pyridin-4-yl-3,8-diazaspiro[4.5]decane-3-carbonyl)-2,3-dihydro-1H-inden-1-yl]-benzamide] | 103% | 100%
O=C(N[C@@H]1CCc2ccc(C(=O)N3CCC4(CCN(c5ccncc5)CC4)C3)cc21)c1cccc(Cl)c1Cl [Example H-94, 2,3-Dichloro-N-[(1R)-6-(8-pyridin-4-yl-3,8-diazaspiro[4.5]decane-3-carbonyl)-2,3-dihydro-1H-inden-1-yl]-benzamide] | 98% | 100%
O=C(N[C@@H]1CCc2ccc(C(=O)N3CCC4(CC3)CCN(c3ccncc3)CC4)cc21)c1cccc(Cl)c1Cl [Example H-95, 2,3-Dichloro-N-[(1R)-6-(9-pyridin-4-yl-3,9-diazaspiro[5.5]undecane-3-carbonyl)-2,3-dihydro-1H-inden-1-yl]-benzamide] | 98% | 100%
O=C(c1ccc2c(c1)[C@H](N1Cc3cccc(Cl)c3C1=O)CC2)N1CCC2(CCN(c3ccncc3)CC2)C1 [Example H-96, 7-Chloro-2-[(1R)-6-(8-pyridin-4-yl-3,8-diazaspiro[4.5]decane-3-carbonyl)-2,3-dihydro-1H-inden-1-yl]-2,3-dihydro-isoindol-1-one] | 104% | 100%
O=C(N[C@@H]1CCc2ccc(C(=O)N3CCC4(CCC(C(=O)N5CCn6ncnc6C5)CC4)CC3)cc21)c1ccccc1Cl [Example H-97, 2-Chloro-N-[(1R)-6-[9-(5,6,7,8-tetrahydro-[1,2,4]triazolo[1,5-a]pyrazine-7-carbonyl)-3-azaspiro[5.5]undecane-3-carbonyl]-2,3-dihydro-1H-inden-1-yl]-benzamide] | 90% | 6%
O=C(N[C@@H]1CCc2ccc(C(=O)N3CCC4(CCN(c5ccncc5)CC4)C3)cc21)c1cc(Cl)ccc1Cl [Example H-98, 2,5-Dichloro-N-[(1R)-6-(8-pyridin-4-yl-3,8-diazaspiro[4.5]decane-3-carbonyl)-2,3-dihydro-1H-inden-1-yl]-benzamide] | 108% | 100%
O=C(N[C@@H]1CCc2ccc(C(=O)N3CCC4(CCN(c5ccncc5)CC4)C3)cc21)c1c(Cl)cccc1Cl [Example H-99, 2,6-Dichloro-N-[(1R)-6-(8-pyridin-4-yl-3,8-diazaspiro[4.5]decane-3-carbonyl)-2,3-dihydro-1H-inden-1-yl]-benzamide] | 105% | 100%
O=C(N[C@@H]1CCc2ccc(C(=O)N3CCC4(CC3)CCN(c3ccncc3)CC4)cc21)c1c(Cl)cccc1Cl [Example H-100, 2,6-Dichloro-N-[(1R)-6-(9-pyridin-4-yl-3,9-diazaspiro[5.5]undecane-3-carbonyl)-2,3-dihydro-1H-inden-1-yl]-benzamide] | 108% | 100%
O=C(N[C@@H]1CCc2ccc(C(=O)N3CCC4(CCN(c5ccncc5)CC4)C3)cc21)c1ccccc1F [Example H-101, 2-Fluoro-N-[(1R)-6-(8-pyridin-4-yl-3,8-diazaspiro[4.5]decane-3-carbonyl)-2,3-dihydro-1H-inden-1-yl]-benzamide] | 107% | 97%
O=C(N[C@@H]1CCc2ccc(C(=O)N3CCC4(CC3)CCN(c3ccncc3)CC4)cc21)c1ccccc1F [Example H-102, 2-Fluoro-N-[(1R)-6-(9-pyridin-4-yl-3,9-diazaspiro[5.5]undecane-3-carbonyl)-2,3-dihydro-1H-inden-1-yl]-benzamide] | 109% | 100%
COc1cc(C)c(C(=O)N[C@@H]2CCc3ccc(C(=O)N4CCC5(CCN(c6ccncc6)CC5)C4)cc32)cc1C [Example H-103, 4-Methoxy-2,5-dimethyl-N-[(1R)-6-(8-pyridin-4-yl-3,8-diazaspiro[4.5]decane-3-carbonyl)-2,3-dihydro-1H-inden-1-yl]-benzamide] | 106% | 99%
Cc1cccc(C)c1C(=O)N[C@@H]1CCc2ccc(C(=O)N3CCC4(CCN(c5ccncc5)CC4)C3)cc21 [Example H-104, 2,6-Dimethyl-N-[(1R)-6-(8-pyridin-4-yl-3,8-diazaspiro[4.5]decane-3-carbonyl)-2,3-dihydro-1H-inden-1-yl]-benzamide] | 109% | 101%
O=C(c1ccc2c(c1)[C@H](NS(=O)(=O)c1ccccc1Cl)CC2)N1CCC2(CCN(c3ccncc3)CC2)C1 [Example H-105, 2-Chloro-N-[(1R)-6-(8-pyridin-4-y-3,8-diazaspiro[4.5]decane-3-carbonyl)-2,3-dihydro-1H-inden-1-yl]-benzenesulfonic acid amide] | 107% | 100%
O=C(c1ccc2c(c1)[C@H](NS(=O)(=O)c1ccccc1Cl)CCC2)N1CCC2(CCN(c3ccncc3)CC2)C1 [Example H-106, 2-Chloro-N-[(1R)-7-(8-pyridin-4-yl-3,8-diazaspiro[4.5]decane-3-carbonyl)-1,2,3,4-tetrahydro-naphthalen-1-yl]-benzenesulfonic acid amide] | 105% | 100%
O=C(N[C@@H]1CCOc2cc(C(F)(F)F)c(C(=O)N3CCC4(CCN(c5ccncc5)CC4)C3)cc21)c1ccccc1Cl [Example H-107, 2-Chloro-N-[(4R)-6-(8-pyridin-4-yl-3,8-diazaspiro[4.5]decane-3-carbonyl)-7-(trifluoromethyl)-3,4-dihydro-2H-chromen-4-yl]-benzamide] | 108% | 72%

Continued, values first:

inhibition at 10 µM [1] | inhibition at 10 µM [2] | SMILES
111% | 100% | COc1ccc(C(=O)N[C@@H]2CCc3ccc(C(=O)N4CCC5(CCN(c6ccncc6)CC5)C4)cc32)c(F)c1 [Example H-108, 2-Fluoro-4-methoxy-N-[(1R)-6-(8-pyridin-4-yl-3,8-diazaspiro[4.5]decane-3-carbonyl)-2,3-dihydro-1H-inden-1-yl]-benzamide]
109% | 100% | O=C(N[C@@H]1CCc2ccc(C(=O)N3CCC4(CCN(c5ccncc5)CC4)C3)cc21)c1c(F)cccc1Cl [Example H-109, 2-Chloro-6-fluoro-N-[(1R)-6-(8-pyridin-4-yl-3,8-diazaspiro[4.5]decane-3-carbonyl)-2,3-dihydro-1H-inden-1-yl]-benzamide]
108% | 101% | O=C(N[C@@H]1CCc2ccc(C(=O)N3CCC4(CCN(c5ccncc5)CC4)C3)cc21)c1c(F)cccc1C(F)(F)F [Example H-110, 2-Fluoro-N-[(1R)-6-(8-pyridin-4-yl-3,8-diazaspiro[4.5]decane-3-carbonyl)-2,3-dihydro-1H-inden-1-yl]-6-(trifluoromethyl)-benzamide]
102% | 100% | Cc1cc(N2CCC3(CCN(C(=O)c4ccc5c(c4)[C@H](NC(=O)c4ccccc4Cl)CC5)C3)CC2)cc(C)n1 [Example H-111, 2-Chloro-N-[(1R)-6-[8-(2,6-dimethyl-pyridin-4-yl)-3,8-diazaspiro[4.5]decane-3-carbonyl]-2,3-dihydro-1H-inden-1-yl]-benzamide hydrochloride]
102% | 100% | Cc1cc(N2CCC3(CCN(C(=O)c4ccc5c(c4)[C@H](NC(=O)c4ccccc4Cl)CC5)C3)CC2)ccn1 [Example H-112, 2-Chloro-N-[(1R)-6-[8-(2-methyl-pyridin-4-yl)-3,8-diazaspiro[4.5]decane-3-carbonyl]-2,3-dihydro-1H-inden-1-yl]-benzamide]
92% | 99% | O=C(c1ccc2c(c1)[C@H](NS(=O)(=O)c1cccc(Cl)c1Cl)CC2)N1CCC2(CCN(c3ccncc3)CC2)C1 [Example H-113, 2,3-Dichloro-N-[(1R)-6-(8-pyridin-4-yl-3,8-diazaspiro[4.5]decane-3-carbonyl)-2,3-dihydro-1H-inden-1-yl]-benzenesulfonic acid amide]
102% | 100% | Cc1ncccc1C(=O)N[C@@H]1CCc2ccc(C(=O)N3CCC4(CCN(c5ccncc5)CC4)C3)cc21 [Example H-114, 2-Methyl-N-[(1R)-6-(8-pyridin-4-yl-3,8-diazaspiro[4.5]decane-3-carbonyl)-2,3-dihydro-1H-inden-1-yl]-pyridine-3-carboxylic acid amide]
101% | 100% | O=C(N[C@@H]1CCc2ccc(C(=O)N3CCC4(CCN(c5ccncc5)CC4)C3)cc21)c1cnccc1C(F)(F)F [Example H-115, N-[(1R)-6-(8-Pyridin-4-yl-3,8-diazaspiro[4.5]decane-3-carbonyl)-2,3-dihydro-1H-inden-1-yl]-4-(trifluoromethyl)-pyridine-3-carboxylic acid amide]
